{"source": "patent US20250161254A1", "about": "“USE OF RETINOIDS FOR TREATMENT OF ATRIAL FIBRILLATION” (NEW YORK UNIVERSITY, priority 2022, published 2025)", "key": {"[1]": {"system": "trans-aortic constriction (TAC) banded mice", "assay": "Electrocardiogram in TAC banded mice, ATRA protection study", "type": "in vivo", "conditions": "two weeks", "source_text": "(§1) TAC banding creates a fixed afterload obstruction in the systemic circulation and serves as an excellent model for drug testing as the surgically-induced coarctation cannot be reversed by medical therapy.\nOn ECG, the P wave duration is a measure of atrial activation time, the PR interval is a measure of atrial-to-ventricular activation time that includes the atrio-ventricular nodal conduction time, the QRS duration is a measure of ventricular activation time, and the HR-corrected QT (QTc) interval is a measure of ventricular repolarization time. […] In TAC banded mice treated with vehicle control (TAC+V), the heart rate (HR) was increased, the P wave, QRS wave, and QTc interval durations were prolonged, and the PR interval was shortened compared to Sham groups."}, "[2]": {"system": "trans-aortic constriction (TAC) banded mice", "assay": "Transthoracic echocardiography in TAC banded mice, ATRA protection study", "type": "in vivo", "procedure": "as §1\nThe effect of TAC banding on left atrial function was measured next by using reservoir strain analysis. 8,30 Left atrial reservoir strain analysis is a sensitive modality to study left atrial mechanics of both relaxation (conduit strain) and contraction (contractile strain) in an angle-independent fashion."}, "TAC banded hearts [3]": {"system": "TAC banded hearts", "assay": "Optical mapping of Langendorff-perfused hearts", "type": "ex vivo, mice", "conditions": "Sham+V, TAC+V and TAC+ATRA hearts compared", "procedure": "Optical mapping of Langendorff-perfused hearts from Sham+V, TAC+V, and TAC+ATRA hearts. (FIG. 6A) Representative left atrial activation maps at 37° C. Hearts were paced at 100 ms basic cycle length (BCL) from the right atria. (FIG. 6B) Calculated LA conduction velocity (CV). (FIG. 6C) Calculated left ventricular CV (FIG. 6D) ECG tracing of sustained atrial arrythmia in TAC+V heart after atrial burst pacing protocol.^6 (FIG. 6E) Left atrial activation map of sustained atrial arrythmia shown in panel (FIG. 6D). Isochrones are drawn 1 ms apart. Data represent mean+S.E.M. n=4-5 per group. One-way ANOVA was used followed by Tukey's test for multiple comparisons to compare differences between experimental groups. * p-value<0.05, ** p-value<0.005, *** p-value<0.001, **** p-value<0.0001"}, "TAC banded hearts [4]": {"system": "TAC banded hearts", "assay": "Atrial arrhythmia inducibility by atrial burst pacing", "type": "in vivo, mice", "conditions": "TAC+ATRA hearts"}, "TAC banded mice [5]": {"system": "TAC banded mice", "assay": "Left atrial fibrosis burden, ImageJ analysis on Masson's trichrome stained sections", "type": "in vivo", "conditions": "for collagen volume fraction in LA: 10 mg/kg/day IP, two weeks", "source_text": "as §1"}, "[6]": {"system": "LA samples from TAC banded hearts", "assay": "RNA-seq on LA samples from TAC+V and TAC+ATRA hearts", "type": "in vivo, mice", "source_text": "Activation of the AngII signaling pathway in the LA from pressure overload is a powerful inducer of inflammation, fibrosis, and Cx43 gap junction remodeling. Blockade of AngII signaling can reduce atrial fibrosis and partially rescued Cx43 remodeling. ^38,39"}, "TAC banded mice [7]": {"system": "TAC banded mice", "assay": "ECG in ATRA reversal study (delayed ATRA initiation)", "type": "in vivo", "conditions": "TAC+dATRA vs TAC+dV"}, "TAC banded mice [8]": {"system": "TAC banded mice", "assay": "ECG dose-response of ATRA in TAC banded mice", "type": "in vivo"}, "guinea pig HF model": {"system": "guinea pig HF model", "conditions": "cited from earlier work"}, "[9]": {"system": "dissociated neonatal rat cardiac fibroblasts", "conditions": "fibroblasts exposed to AngII; cited from earlier work"}, "TLR/NF-KB signaling": {"system": "TLR/NF-KB signaling", "conditions": "diabetic kidney; cited from earlier work"}, "[10]": {"system": "Mice deficient in ALDH1A2", "conditions": "maternal supplementation with oral ATRA; cited from earlier work"}, "chick embryos": {"system": "chick embryos", "conditions": "excess ATRA; cited from earlier work"}, "TAC banded mice [11]": {"system": "TAC banded mice", "assay": "LA fibrosis burden in ATRA reversal study (delayed ATRA initiation)", "conditions": "delayed treatment with ATRA, TAC banding"}, "ALDHIA1 and ALDH1A2": {"system": "ALDHIA1 and ALDH1A2", "conditions": "in vivo; cited from earlier work"}, "CYP26": {"system": "CYP26", "conditions": "rodents; cited from earlier work"}, "[12]": {"conditions": "TAC+ATRA vs TAC+V, ATRA 10 mg/kg/day IP"}, "[13]": {"conditions": "TAC+ATRA vs TAC+V, 10 mg/kg/day IP, two weeks, 10 mg/kg/day"}, "[14]": {"conditions": "GO / REACTOME analysis of normalized genes"}, "[15]": {"conditions": "TAC+ATRA versus TAC+V LA, P<0.05"}, "[16]": {"conditions": "TAC+ATRA vs TAC+V over the dose range"}}, "note": "“Also recorded” adds a separate entry of the source."}
{"smiles": "CC1=C(/C=C/C(C)=C/C=C/C(C)=C/C(=O)O)C(C)(C)CCC1", "note": "[ATRA, all-trans retinoic acid]", "values": [{"measurement": "ECG measurements", "setting": "[1]; Sham+ATRA vs Sham+V, normal pressure conditions, 10 mg/kg/day IP", "value": "no differences"}, {"measurement": "HR-corrected QT (QTc) interval", "setting": "[1]; [12]", "value": "prolonged equally; also recorded: unchanged"}, {"measurement": "P wave duration", "setting": "[1]; [12]", "value": "prevents P wave prolongation; also recorded: reduced to normal levels"}, {"measurement": "PR interval", "setting": "[1]; [12]", "value": "does not significantly alter; also recorded: unchanged"}, {"measurement": "QRS duration", "setting": "[1]; [12]", "value": "prolonged equally; also recorded: unchanged"}, {"measurement": "heart rate (HR)", "setting": "[1]; [12]", "value": "unchanged"}, {"measurement": "echocardiographic measurements of the LA and LV", "setting": "[2]; Sham+ATRA vs Sham+V, normal pressure conditions", "value": "no differences"}, {"measurement": "LV fractional shortening (FS)", "setting": "[2]; [13]", "value": "equally reduced"}, {"measurement": "LV longitudinal strain", "setting": "[2]; [13]", "value": "equally reduced"}, {"measurement": "left atrial mechanics (reservoir strain)", "setting": "[2]; [13]", "value": "significant improvement; also recorded: significantly improved"}, {"measurement": "left ventricular hypertrophy (LV wall thickness)", "setting": "[2]; [13]", "value": "increased in both TAC+V and TAC+ATRA cohorts"}, {"measurement": "left ventricular CV", "setting": "TAC banded hearts [3]", "value": "not significantly different"}, {"measurement": "hearts with sustained atrial arrhythmia (lasting >30 sec) after atrial burst pacing", "setting": "TAC banded hearts [4]", "value": "0 out of 3"}, {"measurement": "collagen volume fraction in LA", "setting": "TAC banded mice [5]; Sham+ATRA", "value": "5.3±0.1", "unit": "%"}, {"measurement": "left atrial interstitial and perivascular fibrosis", "setting": "TAC banded mice [5]; TAC+ATRA vs TAC+V", "value": "reduced; also recorded: limits"}, {"measurement": "collagen volume fraction in LA", "setting": "TAC banded mice [5]; TAC+ATRA", "value": "8.3±0.6", "unit": "%"}, {"measurement": "pathways of ECM production, pro-inflammatory signaling and vasoconstriction", "setting": "[6]; [14]", "value": "significantly downregulated"}, {"measurement": "pathways of mitochondrial energy production and cardiac/atrial development", "setting": "[6]; [14]", "value": "significantly upregulated"}, {"measurement": "left atrial Scn5a expression", "setting": "[6]; TAC banded hearts", "value": "increases"}, {"measurement": "differentially expressed transcripts", "setting": "[6]; [15]", "value": 4133, "unit": "transcripts"}, {"measurement": "transcripts downregulated", "setting": "[6]; [15]", "value": 2058, "unit": "transcripts"}, {"measurement": "transcripts upregulated", "setting": "[6]; [15]", "value": 2075, "unit": "transcripts"}, {"measurement": "DEGs moving in reciprocal direction to the [TAC vs Sham] dataset (normalization)", "setting": "[6]; [TAC+ATRA vs TAC+V] dataset", "value": 1987, "unit": "DEGs"}, {"measurement": "expression of PDGF-A and PDGF-B", "setting": "[6]; pressure overloaded LA", "value": "reduced expression"}, {"measurement": "expression of TLR2, NF-KB signaling components, NLRP3 and IL-1b", "setting": "[6]; pressure overloaded LA", "value": "downregulated"}, {"measurement": "expression of angiotensin converting enzyme (ACE)", "setting": "[6]; pressure overloaded LA", "value": "significantly downregulated"}, {"measurement": "P wave duration", "setting": "TAC banded mice [7]; 10 mg/kg/day IP started two weeks post-TAC, for two weeks, 10 mg/kg/day", "value": "significantly reduces"}, {"measurement": "PR interval", "setting": "TAC banded mice [7]; delayed treatment", "value": "not significantly different; also recorded: unchanged"}, {"measurement": "QRS duration", "setting": "TAC banded mice [7]; delayed treatment", "value": "not significantly different; also recorded: unchanged"}, {"measurement": "QTc interval", "setting": "TAC banded mice [7]; delayed treatment", "value": "not significantly different; also recorded: unchanged"}, {"measurement": "heart rate (HR)", "setting": "TAC banded mice [7]; delayed treatment", "value": "unchanged"}, {"measurement": "P wave duration shortening", "setting": "TAC banded mice [8]; 20 mg/kg dose compared with 10", "value": "no further shortening"}, {"measurement": "reduction of P wave prolongation, dose dependence", "setting": "TAC banded mice [8]; 2, 5, 10, 20 mg/kg daily IP, two weeks", "value": "dose-dependent fashion"}, {"measurement": "ventricular ectopy (potential cardiotoxicity)", "setting": "TAC banded mice [8]; ATRA 20 mg/kg daily IP", "value": "increased ventricular ectopy"}, {"measurement": "PR interval", "setting": "TAC banded mice [8]; [16]", "value": "no significant dose-dependent effect; also recorded: not significantly changed"}, {"measurement": "QRS duration", "setting": "TAC banded mice [8]; [16]", "value": "no significant dose-dependent effect; also recorded: not significantly changed"}, {"measurement": "heart rate", "setting": "TAC banded mice [8]; [16]", "value": "no significant dose-dependent effect; also recorded: not significantly changed"}, {"measurement": "ATRA dose of maximal P wave duration shortening", "setting": "TAC banded mice [8]; daily IP, two weeks", "value": 10, "unit": "m/kg"}, {"measurement": "left ventricular systolic function", "setting": "guinea pig HF model", "value": "improve"}, {"measurement": "ventricular fibrosis", "setting": "guinea pig HF model", "value": "reduce"}, {"measurement": "TGF-β production", "setting": "[9]", "value": "reduces"}, {"measurement": "collagen secretion", "setting": "[9]", "value": "reduces"}, {"measurement": "proliferation", "setting": "[9]", "value": "reduces"}, {"measurement": "production of inflammatory cytokines, chemokines, adhesion molecules and growth factors", "setting": "TLR/NF-KB signaling", "value": "block cytokine, chemokine, and growth factor production; also recorded: blocks production"}, {"measurement": "atrial defects", "setting": "[10]", "value": "rescue the atrial defects"}, {"measurement": "atrial size", "setting": "chick embryos", "value": "developed enlarged atria"}, {"measurement": "interstitial and perivascular fibrosis", "setting": "TAC banded mice [11]", "value": "reverses"}]}
{"smiles": "O=C(NCCCCCCCCNC(=O)C(Cl)Cl)C(Cl)Cl", "note": "[WIN18446]", "values": [{"measurement": "ATRA biosynthesis", "setting": "ALDHIA1 and ALDH1A2", "value": "efficiently block ATRA biosynthesis"}]}
{"smiles": "CCC(CC)C(c1ccc(Nc2nc3ccccc3s2)cc1)n1cncn1", "note": "(stereo not shown) [talarozole]", "values": [{"measurement": "ATRA levels", "setting": "CYP26", "value": "effectively increase ATRA levels"}]}
